Results published in the supplement of paper PMC6045584.
± gives the standard deviation of the averaged measurements.

Key:
[1] = compound: CCc1cc(Nc2nccc(-c3c(-c4ccc(OC)c(C(=O)Nc5c(F)cccc5F)c4)nc4ccccn34)n2)c(OC)cc1N1CCC(N2CCN(S(C)(=O)=O)CC2)CC1; assay: surviving fraction relative to DMSO-only wells; higher = less growth inhibition; settings: exposure time: 5 days
Method in brief: (§1)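 Viability was scored with CellTiter-Glo luminescence and normalised to the median of DMSO-only wells as surviving fraction. Beforehand, log-phase tumour cell lines were seeded at 250–500 cells per well in 384-well plates, allowed 24 hours, and exposed continuously for five days to inhibitors at 0.5, 1, 5, 10, 50, 100, 500 and 1000 nM. Only lines whose three screens gave replicate Pearson r >0.7 and median Z' >0.3 were kept.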

NILOTINIB = compound: Cc1cn(-c2cc(NC(=O)c3ccc(C)c(Nc4nccc(-c5cccnc5)n4)c3)cc(C(F)(F)F)c2)cn1 [NILOTINIB]; assay: as above; settings: exposure time: 5 days
Method in brief: as §1

| Test System | surviving fraction ([1]; 0.5 nM) | surviving fraction ([1]; 1 nM) | surviving fraction ([1]; 5 nM) | surviving fraction ([1]; 10 nM) | surviving fraction ([1]; 50 nM) | surviving fraction ([1]; 100 nM) | surviving fraction ([1]; 500 nM) | surviving fraction ([1]; 1000 nM) | surviving fraction (NILOTINIB; 0.5 nM) | surviving fraction (NILOTINIB; 1 nM) | surviving fraction (NILOTINIB; 5 nM) | surviving fraction (NILOTINIB; 10 nM) | surviving fraction (NILOTINIB; 50 nM) | surviving fraction (NILOTINIB; 100 nM) | surviving fraction (NILOTINIB; 500 nM) | surviving fraction (NILOTINIB; 1000 nM) |
| --- | --- | --- | --- | --- | --- | --- | --- | --- | --- | --- | --- | --- | --- | --- | --- | --- |
| MDAMB436 BREAST | 1.01 ± 0.065 | 0.997 ± 0.064 | 0.933 ± 0.063 | 0.965 ± 0.041 | 0.961 ± 0.11 | 0.967 ± 0.071 | 1.04 ± 0.07 | 0.887 ± 0.11 | 0.905 ± 0.076 | 1 ± 0.088 | 1 ± 0.017 | 0.964 ± 0.057 | 0.82 ± 0.087 | 0.915 ± 0.033 | 0.904 ± 0.03 | 0.78 ± 0.051 |
| MDAMB453 BREAST | 1.02 ± 0.037 | 1.09 ± 0.12 | 1.14 ± 0.043 | 1.08 ± 0.054 | 1.12 ± 0.029 | 1.16 ± 0.031 | 1.02 ± 0.061 | 1.07 ± 0.086 | 1 ± 0.045 | 0.998 ± 0.097 | 1.03 ± 0.077 | 1.05 ± 0.088 | 0.91 ± 0.02 | 0.925 ± 0.016 | 0.895 ± 0.0087 | 0.874 ± 0.068 |
| MDAMB468 BREAST | 0.909 ± 0.09 | 1.04 ± 0.053 | 1.12 ± 0.047 | 1.14 ± 0.041 | 1.04 ± 0.091 | 1.17 ± 0.073 | 1.04 ± 0.07 | 1.06 ± 0.041 | 0.908 ± 0.055 | 0.931 ± 0.043 | 0.935 ± 0.069 | 1.05 ± 0.024 | 0.927 ± 0.037 | 0.835 ± 0.0095 | 0.9353 ± 0.0015 | 0.927 ± 0.045 |
| MFM223 BREAST | 1.14 ± 0.05 | 1.15 ± 0.036 | 1.1 ± 0.08 | 1.15 ± 0.027 | 1.15 ± 0.012 | 1.21 ± 0.06 | 1.19 ± 0.033 | 1.05 ± 0.079 | 1.11 ± 0.085 | 1.15 ± 0.12 | 1.08 ± 0.058 | 1.08 ± 0.056 | 0.798 ± 0.048 | 0.931 ± 0.15 | 0.9 ± 0.11 | 0.912 ± 0.13 |
| MG63 BONE | 0.953 ± 0.012 | 0.987 ± 0.028 | 1.005 ± 0.01 | 1.06 ± 0.026 | 0.968 ± 0.034 | 1.01 ± 0.014 | 0.956 ± 0.029 | 0.976 ± 0.047 | 1.03 ± 0.04 | 1.04 ± 0.053 | 1.11 ± 0.042 | 1.13 ± 0.079 | 1.19 ± 0.043 | 1.23 ± 0.07 | 1.24 ± 0.047 | 1.28 ± 0.049 |
| MHM BONE | 0.97 ± 0.021 | 0.974 ± 0.032 | 1.03 ± 0.011 | 0.998 ± 0.011 | 1.027 ± 0.0053 | 1 ± 0.03 | 0.982 ± 0.055 | 0.975 ± 0.029 | 1.01 ± 0.028 | 0.999 ± 0.05 | 1.09 ± 0.014 | 1.06 ± 0.028 | 1.11 ± 0.023 | 1.13 ± 0.025 | 1.135 ± 0.0021 | 1.19 ± 0.059 |
| NCIH441 LUNG | 0.964 ± 0.035 | 0.977 ± 0.13 | 0.99 ± 0.029 | 0.989 ± 0.059 | 0.997 ± 0.04 | 1.07 ± 0.065 | 0.917 ± 0.072 | 0.979 ± 0.092 | 1.08 ± 0.14 | 1.01 ± 0.024 | 1.11 ± 0.037 | 1.05 ± 0.043 | 0.986 ± 0.11 | 0.91 ± 0.17 | 0.874 ± 0.022 | 0.889 ± 0.064 |
| NOS1 BONE | 1 ± 0.038 | 1.05 ± 0.051 | 1.16 ± 0.14 | 1.35 ± 0.26 | 1.22 ± 0.21 | 1.14 ± 0.12 | 1.12 ± 0.11 | 0.949 ± 0.043 | 0.958 ± 0.048 | 1.11 ± 0.029 | 1.07 ± 0.093 | 1.21 ± 0.048 | 1.02 ± 0.045 | 0.849 ± 0.013 | 0.666 ± 0.019 | 0.606 ± 0.03 |
| NY BONE | 0.969 ± 0.012 | 0.982 ± 0.027 | 1.023 ± 0.0066 | 1.09 ± 0.014 | 1.03 ± 0.039 | 1.04 ± 0.023 | 0.993 ± 0.025 | 0.977 ± 0.024 | 1.03 ± 0.038 | 1.04 ± 0.018 | 1.08 ± 0.025 | 1.1 ± 0.049 | 1.12 ± 0.043 | 1.12 ± 0.03 | 1.01 ± 0.06 | 1.01 ± 0.045 |
| OS25HAL BONE | 0.997 ± 0.011 | 1.02 ± 0.011 | 1.032 ± 0.01 | 1.04 ± 0.037 | 1.02 ± 0.015 | 1.04 ± 0.018 | 0.948 ± 0.055 | 0.944 ± 0.05 | 1.02 ± 0.034 | 0.973 ± 0.028 | 1.01 ± 0.037 | 0.997 ± 0.061 | 1.03 ± 0.019 | 0.944 ± 0.055 | 0.85 ± 0.05 | 0.795 ± 0.055 |
| OSHN BONE | 1.02 ± 0.018 | 1.04 ± 0.036 | 1.03 ± 0.038 | 1.06 ± 0.034 | 1.02 ± 0.033 | 1.05 ± 0.04 | 1.01 ± 0.023 | 1.04 ± 0.048 | 1.02 ± 0.017 | 1.01 ± 0.023 | 1.06 ± 0.025 | 1.01 ± 0.029 | 0.996 ± 0.034 | 1 ± 0.033 | 0.967 ± 0.02 | 0.96 ± 0.026 |
| PCI30 HEADNECK | 0.889 ± 0.028 | 0.961 ± 0.15 | 1 ± 0.064 | 1.04 ± 0.045 | 0.947 ± 0.054 | 1.07 ± 0.032 | 0.989 ± 0.065 | 0.979 ± 0.065 | 0.952 ± 0.075 | 0.888 ± 0.045 | 1.04 ± 0.06 | 1.01 ± 0.05 | 0.921 ± 0.072 | 0.871 ± 0.056 | 1.08 ± 0.073 | 0.965 ± 0.063 |
| RDES SOFT TISSUE | 1.25 ± 0.081 | 1.13 ± 0.14 | 1.19 ± 0.15 | 1.2 ± 0.043 | 0.998 ± 0.2 | 1.09 ± 0.043 | 0.924 ± 0.1 | 1.25 ± 0.21 | 1.14 ± 0.097 | 1.25 ± 0.058 | 0.966 ± 0.14 | 1.14 ± 0.14 | 0.847 ± 0.16 | 0.78 ± 0.026 | 0.821 ± 0.2 | 0.944 ± 0.13 |
| S68 BREAST | 0.916 ± 0.045 | 1.22 ± 0.11 | 1.29 ± 0.2 | 1.06 ± 0.18 | 1.1 ± 0.26 | 1.06 ± 0.27 | 0.688 ± 0.022 | 0.737 ± 0.089 | 1 ± 0.3 | 1.1 ± 0.14 | 1.34 ± 0.29 | 1.06 ± 0.32 | 0.643 ± 0.041 | 0.846 ± 0.29 | 0.449 ± 0.18 | 0.544 ± 0.2 |
| SAOS2 BONE | 1.1 ± 0.024 | 1.04 ± 0.025 | 1.11 ± 0.035 | 1.144 ± 0.0087 | 1.09 ± 0.016 | 1.19 ± 0.025 | 1.16 ± 0.045 | 1.11 ± 0.018 | 1.13 ± 0.064 | 1.09 ± 0.038 | 1.19 ± 0.035 | 1.21 ± 0.062 | 0.963 ± 0.072 | 0.912 ± 0.091 | 0.91 ± 0.016 | 0.905 ± 0.06 |
| SCC003 HEADNECK | 0.958 ± 0.069 | 1.13 ± 0.031 | 0.966 ± 0.024 | 1.1 ± 0.12 | 1.03 ± 0.14 | 1.1 ± 0.19 | 1.03 ± 0.019 | 1.08 ± 0.085 | 1.1 ± 0.048 | 1.03 ± 0.14 | 1.1 ± 0.037 | 1.04 ± 0.02 | 0.873 ± 0.38 | 1 ± 0.23 | 0.906 ± 0.24 | 0.995 ± 0.13 |
| SCC36 HEADNECK | 0.967 ± 0.035 | 1.04 ± 0.096 | 1.11 ± 0.091 | 1.1 ± 0.072 | 1.07 ± 0.027 | 1.09 ± 0.078 | 0.887 ± 0.03 | 0.791 ± 0.024 | 1.04 ± 0.035 | 1.02 ± 0.043 | 1.06 ± 0.15 | 1.09 ± 0.046 | 0.839 ± 0.048 | 0.849 ± 0.04 | 0.74 ± 0.052 | 0.79 ± 0.038 |
| SCC47 HEADNECK | 0.99 ± 0.038 | 0.992 ± 0.047 | 1.05 ± 0.047 | 1.06 ± 0.021 | 1 ± 0.075 | 1.08 ± 0.038 | 1.04 ± 0.028 | 1.03 ± 0.04 | 1.07 ± 0.05 | 1.06 ± 0.045 | 1.15 ± 0.064 | 1.08 ± 0.025 | 1.041 ± 0.0046 | 1.04 ± 0.074 | 0.95 ± 0.037 | 0.932 ± 0.019 |
| SCC90 HEADNECK | 1 ± 0.084 | 1.01 ± 0.11 | 1.02 ± 0.052 | 1.1 ± 0.023 | 1.02 ± 0.046 | 1.12 ± 0.21 | 1.06 ± 0.23 | 1.14 ± 0.046 | 0.993 ± 0.034 | 1 ± 0.02 | 1.07 ± 0.17 | 1.201 ± 0.0059 | 0.966 ± 0.13 | 0.764 ± 0.045 | 0.924 ± 0.069 | 0.867 ± 0.1 |
